Data as given in paper PMC8197855, “Peptide/β-Peptoid Hybrids with Activity against Vancomycin-Resistant Enterococci: Influence of Hydrophobicity and Structural Features on Antibacterial and Hemolytic Properties” (International Journal of Molecular Sciences, 2021).
Values after ≈ are worked out from the molar mass of the structure shown.

What was measured:
E. faecium isolates = type: cell-based, Enterococcus faecium; conditions: 24 h
Experimental: (§1) Overnight cultures of the enterococcal isolates were diluted in physiological saline (0.9% NaCl) to reach a turbidity of 0.5 McFarland units (Sensititre® nephelometer and the Sensititre® McFarland Standard). Bacterial suspensions were adjusted to 5 × 10^5 CFU/mL in MHB II or BHI broth containing two-fold dilutions of peptidomimetics or conventional antibiotics in a final volume of 100 µL. The plates were incubated for 24 h at 37 °C without shaking. […] All experiments were performed in three biological replicates.

Hemolytic activity = type: cell-based, human; conditions: human, human red blood cells (washed, 1% suspension), 37 °C, 1% red blood cell suspension
Experimental: (§2) A suspension of hRBCs (Single-donor human red blood cells—washed; catalogue No. IPLA-W3 from Innovative researchTM) was washed three times with PBS buffer and centrifuged for 5 min at 2500 rpm. A two-fold serial dilution of compounds in PBS buffer was prepared. Plates (conical-bottomed 96-well plates) with 3 replicate wells per dilution, containing 1% red blood cell suspension, were prepared and dosed with the test compound to achieve a final concentration of 400 μg/mL in a total volume of 100 μL. The plates were incubated (37 °C) for 60 min with mild agitation, and then the cells were pelleted by centrifugation at 1500 rpm for 5 min. Then, the supernatants (50 μL) were transferred to a fresh 96-well plate, and then the concentration of hemoglobin was detected by measuring the OD at 405 nm. The OD of cells incubated with 1% SDS achieved 100% hemolysis, while the OD of cells incubated with PBS buffer achieved 0% hemolysis. The concentration tested was 400 μg/mL (only average values are stated in Table 3). The percent hemolysis was calculated by using the formula:Hemolysis(%) = 100 × [(Asample − Aneg.control)/(Apos. control − Aneg.control)]

[1] = Hydrophobicity by analytical RP-HPLC (% MeCN at peak elution); type: physicochemical
Experimental: Water was filtered by using an Evoqua LaboStar PRO TWF Ultra Pure Water System prior to use in high-performance liquid chromatography (HPLC). The retention time for each peptidomimetic was determined by analytical HPLC using a Phenomenex Luna C18(2) HST column (100 mm × 3 mm; particle size: 2.5 μm; pore size: 100 Å) on a Shimadzu Prominence and Shimadzu Nexera system using an aqueous MeCN gradient with 0.1% trifluoroacetic acid (TFA) added (eluent A: 5:95 MeCN–H2O + 0.1% TFA; eluent B: 95:5 MeCN–H2O + 0.1% TFA); a flow rate of 0.5 mL/min was used. For the elution of peptidomimetics, a linear gradient of 0% to 60% B over 10 min was used with UV detection at λ = 220 nm. The percentage MeCN at peak elution was calculated from the retention time (tR) by using the following formula:%MeCN = [0.95 × 0.6 × tR/10 + 0.05 × (1 − 0.6 × tR/10)] × 100%

E. faecalis 39002 = assay: microbe, parasite or virus in culture; type: cell-based, Enterococcus faecalis; conditions: for Minimum inhibitory concentration: 39002, 24 h
Experimental: as §1

E. faecalis 38262 = assay: microbe, parasite or virus in culture; type: cell-based, Enterococcus faecalis; conditions: for Minimum inhibitory concentration: 38262, 24 h
Experimental: as §1

E. faecalis ATCC 29212 [2] = assay: microbe, parasite or virus in culture; type: cell-based, Enterococcus faecalis; conditions: for Minimum inhibitory concentration: ATCC 29212, 24 h
Experimental: as §1, with “replicates. […]” for “replicates.”

E. faecium ATCC 19434 [3] = assay: microbe, parasite or virus in culture; type: cell-based, Enterococcus faecium; conditions: for Minimum inhibitory concentration: ATCC 19434, 24 h
Experimental: as §1, with “replicates. […]” for “replicates.”

E. faecium 3978 = assay: microbe, parasite or virus in culture; type: cell-based, Enterococcus faecium; conditions: for Minimum inhibitory concentration: 3978, 24 h
Experimental: as §1

E. faecium 2961 [4] = assay: microbe, parasite or virus in culture; type: cell-based, Enterococcus faecium; conditions: for Minimum inhibitory concentration: 2961, 24 h
Experimental: as §1

E. faecium D344R = assay: microbe, parasite or virus in culture; type: cell-based, Enterococcus faecium; conditions: 24 h; for Minimum inhibitory concentration: E. faecium D344R, human clinical isolate
Experimental: as §1

E. faecium 1798 [5] = assay: microbe, parasite or virus in culture; type: cell-based, Enterococcus faecium; conditions: for Minimum inhibitory concentration: 1798, 24 h
Experimental: as §1

[6] = test system: HepG2 cell line ATCC HB-8065; assay: Effect on HepG2 cell viability (MTT assay); type: cell-based, human; conditions: 48 h
Experimental: The effect of peptidomimetics on mammalian cell viability was determined on the HepG2 cell line ATCC HB-8065. In brief, HepG2 cells were seeded into flat-bottom 96-well plates at a concentration of 5000 cells per well. The cells were incubated for 24 h in a humidified incubator (5% CO2, 37 °C). Subsequently, the medium was removed, and the cells were incubated for 48 h in a humidified incubator (5% CO2, 37 °C) with peptidomimetics in serial dilutions. An MTT assay was then performed; in brief, after incubation with the test compounds, the culture medium was removed and fresh medium with 0.2 mg/mL MTT was then added into each well. After incubation (3 h, 37 °C, 5% CO2), the medium with MTT was removed, and 200 μL dimethyl sulfoxide was added at once to each sample. The absorbance of MTT was measured using the spectrophotometer TECAN Infinite M1000 at 540 nm. The relative viability was calculated by using the formula:ODtreated cells × 100/ODcontrol cells
The IC50 values were calculated using the program Graph Pad Prism 5.0. For all compounds, the test range was 10–1280 μg/mL.

human red blood cells = assay: Hemolytic activity; type: cell-based; conditions: 60 min, 37 °C, 1% red blood cell suspension
Experimental: as §2

E. faecalis ATCC 29212 [7] = assay: Broth checkerboard assay with conventional antibiotics; type: cell-based, Enterococcus faecalis; conditions: antibiotic alone (-); BHI broth
Experimental: (§3) The strain culture preparation and final volume were the same as in the MIC assay. […] The plates were incubated for 24 h at 37 °C without shaking. […] All experiments were performed in two biological replicates.
(§4) To evaluate the effect of the combinations, the fractional inhibitory concentration index (FICI) was calculated for each combination according to:ΣFIC = FICA + FICB = (CA/MICA) + (CB/MICB)
(§5) The drug interaction was scored as follows: synergy—FICI ≤ 0.5; no interaction—FICI > 0.5–4; antagonism—FICI > 4 [40].

E. faecium ATCC 19434 [8] = assay: as above; type: cell-based, Enterococcus faecium; conditions: antibiotic alone (-); BHI broth
Experimental: as §3, §4, §5

E. faecium 2961 [9] = assay: as above; type: cell-based, Enterococcus faecium; conditions: antibiotic alone (-); BHI broth
Experimental: as §3, §4, §5

E. faecium 1798 [10] = assay: as above; type: cell-based, Enterococcus faecium; conditions: antibiotic alone (-); BHI broth
Experimental: as §3, §4, §5

E. faecalis isolates = type: cell-based, Enterococcus faecalis; conditions: 24 h
Experimental: as §1

Row | SMILES | MIC (range or typical value) against E. faecium (E. faecium isolates) [µg/mL] | hemolysis at 60 min, 400 µg/mL (Hemolytic activity) [%] | Hydrophobicity, Luna C18(2) HST (0–60% B; 10 min), retention converted into % MeCN [1] [% MeCN] | Minimum inhibitory concentration (E. faecalis 39002) [µg/mL] | Minimum inhibitory concentration (E. faecalis 38262) [µg/mL] | Minimum inhibitory concentration (E. faecalis ATCC 29212 [2]) [µg/mL] | Minimum inhibitory concentration (E. faecium ATCC 19434 [3]) [µg/mL] | Minimum inhibitory concentration (E. faecium 3978) [µg/mL] | Minimum inhibitory concentration (E. faecium 2961 [4]) [µg/mL] | Minimum inhibitory concentration (E. faecium D344R) [µg/mL] | Minimum inhibitory concentration (E. faecium 1798 [5]) [µg/mL] | HepG2 IC50 [6] [µg/mL] | further results
1 | C[C@@H](c1ccccc1)N(CCC(N)=O)C(=O)[C@H](CCCCN)NC(=O)CCN(C(=O)[C@H](CCCCNC(=N)N)NC(=O)CCN(C(=O)[C@H](CCCCN)NC(=O)CCN(C(=O)[C@H](CCCCNC(=N)N)NC(=O)CCN(C(=O)[C@H](CCCCN)NC(=O)CCN(C(=O)[C@H](CCCCNC(=N)N)NC(=O)CCN(C(=O)[C@H](CCCCN)NC(=O)CCN(C(=O)[C@@H](N)CCCCNC(=N)N)[C@@H](C)c1ccccc1)[C@@H](C)c1ccccc1)[C@@H](C)c1ccccc1)[C@@H](C)c1ccccc1)[C@@H](C)c1ccccc1)[C@@H](C)c1ccccc1)[C@@H](C)c1ccccc1 [Compound 4, H-[hArg-βNspe-Lys-βNspe]4-NH2] | 4 to 8 | 2.6 | 43.6 | 32 (≈ 12.2 µM) | 16 (≈ 6.12 µM) | >32 | 8 (≈ 3.06 µM) | 4 to 8 | 4 (≈ 1.53 µM) | 4 (≈ 1.53 µM) | 4 (≈ 1.53 µM) | 42 | –
2 | CC(=O)N[C@@H](CCCCNC(=N)N)C(=O)N(CCC(=O)N[C@@H](CCCCNC(=N)N)C(=O)N(CCC(=O)N[C@@H](CCCCNC(=N)N)C(=O)N(CCC(=O)N[C@@H](CCCCNC(=N)N)C(=O)N(CCC(=O)N[C@@H](CCCCNC(=N)N)C(=O)N(CCC(=O)N[C@@H](CCCCNC(=N)N)C(=O)N(CCC(=O)N[C@@H](CCCCNC(=N)N)C(=O)N(CCC(=O)N[C@@H](CCCCNC(=N)N)C(=O)N(CCC(N)=O)Cc1ccccc1)Cc1ccccc1)Cc1ccccc1)Cc1ccccc1)Cc1ccccc1)Cc1ccccc1)Cc1ccccc1)Cc1ccccc1 [Compound 1, Ac-[hArg-βNPhe]8-NH2] | 2 to 8 | ~6 | 41.8 | 32 (≈ 11.8 µM) | 16 (≈ 5.9 µM) | – | 8 (≈ 2.95 µM) | 4 (≈ 1.48 µM) | 2 (≈ 0.738 µM) | 4 (≈ 1.48 µM) | 2 (≈ 0.738 µM) | 9 | Hemolysis (at 400 µg/mL) (human red blood cells): 6.1%
3 | CN[C@H](CC(C)C)C(=O)N[C@H]1C(=O)N[C@@H](CC(N)=O)C(=O)N[C@H]2C(=O)N[C@H]3C(=O)N[C@H](C(=O)N[C@H](C(=O)O)c4cc(O)cc(O)c4-c4cc3ccc4O)[C@H](O)c3ccc(c(Cl)c3)Oc3cc2cc(c3O[C@@H]2O[C@H](CO)[C@@H](O)[C@H](O)[C@H]2O[C@H]2C[C@](C)(N)[C@H](O)[C@H](C)O2)Oc2ccc(cc2Cl)[C@H]1O [Vancomycin, vancomycin] | – | – | – | – | – | – | – | – | – | – | – | – | MIC (E. faecalis 39002; Enterococcus faecalis, 39002, 24 h, read-out: Minimum inhibitory concentration): 1 µg/mL (≈ 0.69 µM); MIC (E. faecalis 38262; Enterococcus faecalis, 38262, 24 h, read-out: Minimum inhibitory concentration): 1 µg/mL (≈ 0.69 µM); MIC (E. faecalis ATCC 29212 [2]; Enterococcus faecalis, ATCC29212, 24 h, read-out: Minimum inhibitory concentration): 2 to 4 µg/mL (≈ 1.38 to 2.76 µM); MIC (E. faecium ATCC 19434 [3]; Enterococcus faecium, ATCC19434, 24 h, read-out: Minimum inhibitory concentration): 1 to 2 µg/mL (≈ 0.69 to 1.38 µM); MIC (E. faecium 3978; Enterococcus faecium, 3978, 24 h, read-out: Minimum inhibitory concentration): 16 µg/mL (≈ 11 µM); MIC (E. faecium 2961 [4]; Enterococcus faecium, 2961, 24 h, read-out: Minimum inhibitory concentration): > 256 µg/mL; MIC (E. faecium D344R; Enterococcus faecium, D344R, read-out: Minimum inhibitory concentration): 2 µg/mL (≈ 1.38 µM); MIC (E. faecium 1798 [5]; Enterococcus faecium, 1798, 24 h, read-out: Minimum inhibitory concentration): > 256 µg/mL; MIC of antibiotic (E. faecalis ATCC 29212 [7]): 2 to 4 µg/mL; MIC of antibiotic (E. faecium ATCC 19434 [8]): 1 to 2 µg/mL; MIC of antibiotic (E. faecium 2961 [9]): > 256 µg/mL; MIC of antibiotic (E. faecium 1798 [10]): > 256 µg/mL
4 | C[C@@H](c1ccccc1)N(CCC(=O)N[C@@H](CCCCN)C(=O)N(CCC(=O)N[C@@H](CCCCNC(=N)N)C(=O)N(CCC(=O)N[C@@H](CCCCN)C(=O)N(CCC(=O)N[C@@H](CCCCNC(=N)N)C(=O)N(CCC(=O)N[C@@H](CCCCN)C(=O)N(CCC(N)=O)[C@@H](C)c1ccccc1)[C@@H](C)c1ccccc1)[C@@H](C)c1ccccc1)[C@@H](C)c1ccccc1)[C@@H](C)c1ccccc1)C(=O)[C@H](CCCCNC(=N)N)NC(=O)C=Cc1ccccc1 [Compound 6, Cinn-[hArg-βNspe-Lys-βNspe]3-NH2] | 4 to 8 | 15.7 | 45.9 | 16 (≈ 7.64 µM) | 16 (≈ 7.64 µM) | 16 (≈ 7.64 µM) | 8 (≈ 3.82 µM) | 4 (≈ 1.91 µM) | 4 (≈ 1.91 µM) | 4 (≈ 1.91 µM) | 4 (≈ 1.91 µM) | 42 | MIC (range) against E. faecalis (E. faecalis isolates): 16 µg/mL (≈ 7.64 µM)
